Laboratory results as given in the NIST ThermoML archive (doi:10.1016/j.fluid.2015.06.016).
± gives the expanded uncertainty stated by the source.

Settings: 303.15 K; 101.33 kPa; Liquid; Vibrating tube method

| SMILES | mass density |
| --- | --- |
| CCCCCCCCCC [decane] | 722.439 ± 0.28 kg/m3 |
| Cc1ccccc1 [toluene] | 857.606 ± 0.18 kg/m3 |
| NCCO.O=CO [2-hydroxyethylammonium formate] | 1184.46 ± 1.2 kg/m3 |

Next, values leading:

| mass density | SMILES |
| --- | --- |
| 1265.75 ± 0.45 kg/m3 | O=S1(=O)CCCC1 [sulfolane] |
| 1257.13 ± 0.25 kg/m3 | OCC(O)CO [glycerol] |
